From US20150044305A1, “[…] NITRIC OXIDE FOR TREATING RESPIRATORY DISEASES” (Advanced Inhalation Therapies (AIT) Ltd., priority 2012, published 2015)

Key:
[1] = Phase I safety study: oxygen saturation (SpO2) by pulse oximeter; format: in vivo, human
Description: After obtaining informed consent, treatment was initiated within 5 days of enrollment. Subjects were housed in a hospital ward and received 160 ppm gNO for 30 minutes every four hours (Q4 h), five times a day, for five consecutive days by inhalation. Subjects returned for follow-up evaluations 3, 7 and 21 days after the final gNO administration. Subject safety was determined by monitoring vital signs, methemoglobin levels, lung function, blood chemistry, hematology, prothrombin time, inflammatory cytokine/chemokines levels and endothelial activation.
Abbreviated physical examination by a registered nurse was carried out each day prior to initiation of treatments on days 1-5. Oxygenation was measured with a pulse oximeter (Rad 57, Masimo Corporation, USA) which was used according to manufacturer's guidelines to measure functional oxygen saturation of arterial hemoglobin (SpO2) and heart rate. These parameters were measured continuously during every gNO administration and for 3.5 hours after the first treatment of the day.

[2] = Phase I safety study: inspiratory NO2 level during gNO administration; format: in vivo, human; conditions: inspired gas, 160 ppm gNO
Excerpt: The levels of gNO, NO2, O2 and methemoglobin were monitored during the administration of gNO. The target gas mixture was 160 ppm gNO with a nitrogen dioxide (NO2) level of less than 5 ppm and an oxygen (O2) level ranging from 21% to 25%. Inspiratory NO, NO2 and O2 levels were continuously monitored by sampling from the mouthpiece sample port located about 6 millimeters from the mouth of the subject with an AeroNOx (Pulmonox, AB, Canada) NO, NO2 and O2 electrochemical analyzer. Delivery safety was determined by the number of occasions that NO2 exceeded 5 ppm, gNO exceeding 10% variation and O2 dropping below 20% during gNO administration. A commercially available noninvasive pulse oximeter (Rad 57, Masimo Corporation, USA) was used to measure saturation levels at the periphery of methemoglobin (SpMet).

Klebsiella sp.#3 = conditions: 200 ppm gNO, saline suspension; cited from earlier work
[3] = topical 200 ppm gNO, cited from earlier work

In the case of `[N]=O` [gNO, nitric oxide], the “lowest observed SpO2” value ([1]; 160 ppm gNO 30 minutes, five times a day, five days) is reported as 93%, the “incidences of hypoxemia (less than 85% SpO2)” value ([1]; during or after gNO administration) is reported as “No sudden incidences of hypoxemia” and the “SpO2 levels over time between pretreatment and post treatment” value ([1]; not significant statistically nor clinically) is reported as “decreased slightly”. The “highest NO2 level recorded during the treatments” value [2] was 2.8 ppm, the “LD100” value (Klebsiella sp.#3) was 6 h and the “Latent Period” value (Klebsiella sp.#3) was 3 h. For the same molecule, the “−2.5 Log10 (hours)” value (Klebsiella sp.#3) was 5.1 hours, the wound size reduction ([3]; at one week) was 42% and the biofilm presence ([3]; within the first three days of treatment) was “no longer visibly present”.
